Measurements: patent EP0900076B1, “TRANSDERMAL DEVICE” (priority 1996, dated 1997)

Key:
clinical [1] = settings: human, in vivo, 100 mg
[2] = 10 mg morphine, end of the 24 hour delivery, mean; cited from earlier work
clinical [3] = settings: female, human, in vivo, 100 mg
[4] = Example 2: transdermal morphine after elective coronary surgery, amount absorbed from the drug cell; settings: after 48 hours, of the initial 100 mg
[5] = postoperative monitoring during the test period

SMILES	concentration at 0 h (clinical [1]) [nM]	concentration at 1 h (clinical [1]) [nM]	concentration at 2 h (clinical [1]) [nM]	concentration at 3 h (clinical [1]) [nM]	concentration at 3.5 h (clinical [1]) [nM]	concentration at 4 h (clinical [1]) [nM]	amount of drug in the reservoir was reduced [2] [per cent]	concentration at 1 h (clinical [3]) [nM]	concentration at 32 h (clinical [3]) [nM]	concentration at 48 h (clinical [3]) [nM]	morphine dose in the drug cell found to be absorbed [4] [mg]	oxygen saturation [5]
CN1CC[C@]23c4c5ccc(O)c4O[C@H]2[C@@H](O)C=C[C@H]3[C@H]1C5 [Morphine acetate]	0	53	112	115	154	162	–	–	–	–	–	–
CN1CC[C@]23c4c5ccc(O)c4O[C@H]2[C@@H](O)C=C[C@H]3[C@H]1C5 [Morphine]	–	–	–	–	–	–	75	8 ± 3.5	9.8 ± 3.8	8.5 ± 1.7	32 ± 6	remained normal
